Where a SMILES comes first, the peptide text is derived from it. [ ]: non-standard residue; d: D form. dTrp(1-Me) = Cn1cc(C[C@@H](N)C(=O)O)c2ccccc21
Legend:
[1] = Change in Cmax in rat at 37 umol/kg, po measured upto 72 hrs by LC-MS/MS analysis; assay type: ADME, organism-based; settings: in vivo, at 37 µmol/kg
[2] = Change in AUC (infinity) in rat at 37 umol/kg, po measured upto 72 hrs by LC-MS/MS analysis; assay type: ADME, organism-based; settings: in vivo, at 37 µmol/kg
[3] = Chemical stability of compound in saline assessed as compound remaining at 5 uM measured after 24 hrs by LC-MS/MS analysis; assay type: physicochemical; settings: read-out: Stabilty
[4] = Chemical stability of compound in 0.1 N aqueous HCl buffer assessed as compound remaining at pH 1 at 5 uM measured after 1.5 hrs by LC-MS/MS analysis; assay type: physicochemical; settings: pH 1, 1.5 h
[5] = Chemical stability of compound in 0.1 N aqueous HCl buffer assessed as compound remaining at pH 1 at 5 uM measured after 24 hrs by LC-MS/MS analysis; assay type: physicochemical; settings: pH 1, 24 h
[6] = Chemical stability of compound in PBS buffer assessed as compound remaining at pH 7.4 at 5 uM measured after 6 hrs by LC-MS/MS analysis; assay type: physicochemical; settings: read-out: Stabilty
[7] = Chemical stability of compound in PBS buffer assessed as compound remaining at pH 7.4 at 5 uM measured after 24 hrs by LC-MS/MS analysis; assay type: physicochemical; settings: read-out: Stabilty
[8] = Chemical stability of compound in simulated gastric fluid assessed as compound remaining at 5 uM measured after 1.5 hrs by LC-MS/MS analysis; assay type: ADME, physicochemical; settings: read-out: Stabilty
[9] = Chemical stability of compound in simulated gastric fluid assessed as compound remaining at 5 uM measured after 24 hrs by LC-MS/MS analysis; assay type: ADME, physicochemical; settings: read-out: Stabilty
[10] = Chemical stability of compound in simulated intestinal fluid assessed as compound remaining at 5 uM measured after 3 hrs by LC-MS/MS analysis; assay type: ADME, physicochemical; settings: read-out: Stabilty
[11] = Chemical stability of compound in simulated intestinal fluid assessed as compound remaining at 5 uM measured after 24 hrs by LC-MS/MS analysis; assay type: ADME, physicochemical; settings: read-out: Stabilty
[12] = Stability in mouse plasma assessed as parent compound remaining measured after 2 hrs by LC-MS/MS analysis; assay type: ADME, cell-free; settings: read-out: Stabilty
[13] = Stability in rat plasma assessed as parent compound remaining measured after 2 hrs by LC-MS/MS analysis; assay type: ADME, cell-free; settings: read-out: Stabilty
[14] = Stability in human plasma assessed as parent compound remaining measured after 6 hrs by LC-MS/MS analysis; assay type: ADME, cell-free; settings: read-out: Stabilty
[15] = Stability in human plasma assessed as parent compound remaining measured after 24 hrs by LC-MS/MS analysis; assay type: ADME, cell-free; settings: read-out: Stabilty
[16] = Dose normalized Cmax in rat at 10 mg/kg, po measured upto 72 hrs by LC-MS/MS analysis; assay type: ADME, organism-based; settings: in vivo
[17] = Dose normalized AUC (0 to infinity) in rat at 10 mg/kg, po measured upto 72 hrs by LC-MS/MS analysis; assay type: ADME, organism-based; settings: in vivo
[18] = Change in normalised Cmax in rat at 10 mg/kg, po measured upto 72 hrs by LC-MS/MS analysis; assay type: ADME, organism-based; settings: in vivo
[19] = Change in normalised AUCinfinity in rat at 10 mg/kg, po measured upto 72 hrs by LC-MS/MS analysis; assay type: ADME, organism-based; settings: in vivo

| SMILES | Activity [1] | Activity [2] | remaining at 24 h, 5 µM [3] | Stabilty [4] | Stabilty [5] | remaining at 6 h, 5 µM [6] | remaining at 24 h, 5 µM [7] | remaining at 1.5 h, 5 µM [8] | remaining at 24 h, 5 µM [9] | remaining at 3 h, 5 µM [10] | remaining at 24 h, 5 µM [11] | remaining at 2 h [12] | remaining at 2 h [13] | remaining at 6 h [14] | remaining at 24 h [15] | Cmax/dose [16] | AUC/dose [17] | Activity [18] | Activity [19] |
| --- | --- | --- | --- | --- | --- | --- | --- | --- | --- | --- | --- | --- | --- | --- | --- | --- | --- | --- | --- |
| CCOC(=O)[C@@H](Cc1cn(C)c2ccccc12)NC(=O)[C@@H](N)CCC(N)=O | 5% | -16% | – | – | – | – | – | – | – | – | – | – | – | – | – | – | – | – | – |
| Cl.Cn1cc(C[C@@H](N)C(=O)N[C@H](Cc2cn(C)c3ccccc23)C(=O)O)c2ccccc21 | – | – | 91% | 45% | 91% | 100% | 34% | 63% | 49% | 81% | 77% | 65% | 80% | 92% | 82% | 3 µM | 262 µM·h | -83% | -48% |
| Cn1cc(C[C@@H](N)C(=O)OCC2CCNCC2)c2ccccc21.O=P(O)(O)O | -79% | -64% | – | – | – | – | – | – | – | – | – | – | – | – | – | – | – | – | – |
| CC(C)C(NC(=O)[C@H](N)Cc1cn(C)c2ccccc12)C(=O)O.Cl (single isomer, unassigned) | – | – | 98% | 51% | 98% | 99% | 37% | 54% | 49% | 62% | 64% | 89% | 100% | 68% | 39% | 1.6 µM | 202 µM·h | -91% | -60% |
| CCOC(=O)[C@@H](Cc1cn(C)c2ccccc12)NC(=O)[C@@H](N)CCC(N)=O.O=S(=O)(O)O | 20% | -20% | – | – | – | – | – | – | – | – | – | – | – | – | – | – | – | – | – |
| CN(C)CCOC(=O)[C@H](N)Cc1cn(C)c2ccccc12.Cl | – | – | 47% | 3% | 47% | 0% | 0% | 2% | 2% | 0% | 0% | 0% | 0% | 10% | 2% | 39.5 µM | 731 µM·h | 128% | 44% |
| Cl.Cn1cc(C[C@@H](N)C(=O)OCCC2CCNCC2)c2ccccc21 | – | – | 46% | 74% | 46% | 91% | 22% | 90% | 90% | 62% | 8% | 0% | 0% | 27% | 4% | 2.4 µM | 110 µM·h | -86% | -78% |
| CCOC(=O)[C@@H](Cc1cn(C)c2ccccc12)NC(=O)[C@@H](N)CC(C)C.O=S(=O)(O)O | -23% | -5% | – | – | – | – | – | – | – | – | – | – | – | – | – | – | – | – | – |
| Cl.Cn1cc(C[C@@H](N)C(=O)OCC(N)C(=O)O)c2ccccc21 (single isomer, unassigned) | – | – | 70% | 10% | 70% | 0% | 0% | 56% | 56% | 0% | 0% | 80% | 84% | 0% | 0% | 13.3 µM | 588 µM·h | -23% | 16% |
| Cn1cc(C[C@@H](NC(=O)[C@@H](N)CCCCN)C(=O)O)c2ccccc21.O=P(O)(O)O | 4% | -17% | – | – | – | – | – | – | – | – | – | – | – | – | – | – | – | – | – |
| CS(=O)(=O)O.Cn1cc(C[C@@H](N)C(=O)OCC(O)CO)c2ccccc21 (some centres undefined) | -27% | -27% | – | – | – | – | – | – | – | – | – | – | – | – | – | – | – | – | – |
| CCOC(=O)[C@@H](Cc1cn(C)c2ccccc12)NC(=O)[C@@H](N)CCC(N)=O.CS(=O)(=O)O | 4% | -12% | – | – | – | – | – | – | – | – | – | – | – | – | – | – | – | – | – |
| CCOC(=O)[C@@H](Cc1cn(C)c2ccccc12)NC(=O)[C@@H](N)CC(C)C.O=S(=O)(O)c1ccccc1 | 29% | 45% | – | – | – | – | – | – | – | – | – | – | – | – | – | – | – | – | – |
| Cn1cc(C[C@@H](N)C(=O)OCC(O)CO)c2ccccc21.O=S(=O)(O)O (some centres undefined) | 2% | 21% | – | – | – | – | – | – | – | – | – | – | – | – | – | – | – | – | – |
| CCOC(=O)[C@@H](Cc1cn(C)c2ccccc12)NC(=O)[C@@H](N)CC(C)C.CS(=O)(=O)O | 111% | 127% | – | – | – | – | – | – | – | – | – | – | – | – | – | – | – | – | – |

The remaining lines, values ahead:

| Activity [1] | Activity [2] | remaining at 24 h, 5 µM [3] | Stabilty [4] | Stabilty [5] | remaining at 6 h, 5 µM [6] | remaining at 24 h, 5 µM [7] | remaining at 1.5 h, 5 µM [8] | remaining at 24 h, 5 µM [9] | remaining at 3 h, 5 µM [10] | remaining at 24 h, 5 µM [11] | remaining at 2 h [12] | remaining at 2 h [13] | remaining at 6 h [14] | remaining at 24 h [15] | Cmax/dose [16] | AUC/dose [17] | Activity [18] | Activity [19] | SMILES |
| --- | --- | --- | --- | --- | --- | --- | --- | --- | --- | --- | --- | --- | --- | --- | --- | --- | --- | --- | --- |
| – | – | 87% | 53% | 87% | 81% | 45% | 51% | 48% | 53% | 51% | 82% | 79% | 77% | 32% | 3.2 µM | 182 µM·h | -82% | -64% | Cl.Cn1cc(C[C@@H](NC(=O)[C@H](N)Cc2c[nH]c3ccccc23)C(=O)O)c2ccccc21 |
| – | – | 99% | 98% | 99% | 91% | 44% | 55% | 50% | 78% | 76% | 57% | 9% | 79% | 47% | 14.2 µM | 338 µM·h | -18% | -33% | CC(C)[C@H](N)C(=O)N[C@H](Cc1cn(C)c2ccccc12)C(=O)O.Cl |
| – | – | 40% | 100% | 40% | 58% | 34% | 20% | 25% | 36% | 12% | 94% | 92% | 65% | 0% | 13.4 µM | 310 µM·h | -22% | -39% | C[C@H](N)C(=O)N[C@H](Cc1cn(C)c2ccccc12)C(=O)O.Cl |
| -3% | 3% | – | – | – | – | – | – | – | – | – | – | – | – | – | – | – | – | – | Cn1cc(C[C@@H](NC(=O)CN)C(=O)O)c2ccccc21.O=P(O)(O)O (H-Gly-[dTrp(1-Me)]-OH) |
| -17% | -13% | – | – | – | – | – | – | – | – | – | – | – | – | – | – | – | – | – | Cn1cc(C[C@@H](NC(=O)[C@@H](N)CCCCN)C(=O)O)c2ccccc21 |
| -4% | 10% | – | – | – | – | – | – | – | – | – | – | – | – | – | – | – | – | – | Cn1cc(C[C@@H](NC(=O)[C@@H](N)CCCCN)C(=O)O)c2ccccc21.O=S(=O)(O)O |
| -32% | -28% | – | – | – | – | – | – | – | – | – | – | – | – | – | – | – | – | – | CCOC(=O)[C@@H](Cc1cn(C)c2ccccc12)NC(=O)[C@@H](N)CCC(N)=O.O=P(O)(O)O |
